From ChEMBL document CHEMBL1136266, “beta-Homolysine oligomers: a new class of Trojan carriers” (Bioorg Med Chem Lett, 2003)

Experiments:
Type in all cases: functional, cell-based
Conditions in all cases: Homo sapiens
[1] = system: DU-145; assay: Cellular uptake of compound into DU145 tumor cells by laser scanning cytometry at a concentration of 10 uM
[2] = system: HCT-15; assay: Cellular uptake of compound into HCT15 tumor cells by laser scanning cytometry at a concentration of 0.1 uM
[3] = system: DU-145; assay: Cellular uptake of compound into DU145 tumor cells by laser scanning cytometry at a concentration of 0.1 uM
[4] = system: DU-145; assay: Cellular uptake of compound into DU145 tumor cells by laser scanning cytometry at a concentration of 1 uM
[5] = system: HCT-15; assay: Cellular uptake of compound into HCT15 tumor cells by laser scanning cytometry at a concentration of 1 uM
[6] = system: HCT-15; assay: Cellular uptake of compound into HCT15 tumor cells by laser scanning cytometry at a concentration of 10 uM

Row | Compound | Uptake [1] | Uptake [2] | Uptake [3] | Uptake [4] | Uptake [5] | Uptake [6]
1 | NCCCCC(CC(N)=O)NC(=O)CC(CCCCN)NC(=O)CC(CCCCN)NC(=O)CC(CCCCN)NC(=O)CC(CCCCN)NC(=O)CC(CCCCN)NC(=O)CC(CCCCN)NC(=O)COCCOCCNC(=O)c1ccccc1C1c2ccc(O)cc2Oc2cc(O)ccc21 (stereo not given) | 98.8% | 99.9% | 92.5% | 85.8% | 99.8% | 99.8%
2 | NCCCCC(CC(N)=O)NC(=O)CC(CCCCN)NC(=O)CC(CCCCN)NC(=O)CC(CCCCN)NC(=O)CC(CCCCN)NC(=O)CC(CCCCN)NC(=O)COCCOCCNC(=O)c1ccccc1C1c2ccc(O)cc2Oc2cc(O)ccc21 (stereo not given) | 94.9% | 99.9% | 40.4% | 69.5% | 99.7% | 99.6%
3 | NCCCCC(CC(N)=O)NC(=O)CC(CCCCN)NC(=O)CC(CCCCN)NC(=O)CC(CCCCN)NC(=O)CC(CCCCN)NC(=O)CC(CCCCN)NC(=O)CC(CCCCN)NC(=O)CC(CCCCN)NC(=O)COCCOCCNC(=O)c1ccccc1C1c2ccc(O)cc2Oc2cc(O)ccc21 (stereo not given) | 89.5% | 99.5% | 98.5% | 98.9% | 99.9% | 99.9%
4 | O=C1OC2(c3ccc(O)cc3Oc3cc(O)ccc32)c2ccccc21 | 0.3% | 0.3% | 0.1% | 0.8% | 1.1% | 0.7%
5 | NCCCCC(CC(N)=O)NC(=O)CC(CCCCN)NC(=O)CC(CCCCN)NC(=O)CC(CCCCN)NC(=O)CC(CCCCN)NC(=O)COCCOCCNC(=O)c1ccccc1C1c2ccc(O)cc2Oc2cc(O)ccc21 (stereo not given) | 97.8% | 99.8% | 71.9% | 76.5% | 99.6% | 99.8%
